For ten compounds, TGI and GI50 results are on record in PubChem BioAssay (NCI).

Where “and” joins values, the source holds several entries; their conditions need not be identical. Equal values may be shown once.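 Assay format: 96-well plates, 48-hour exposure. GI50: concentration for 50% inhibition of growth. TGI is the concentration that stops growth completely.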 Some results are limits rather than exact numbers.

Some test systems named below: CCRF-CEM leukemia; LOX IMVI melanoma; SF-295 CNS; OVCAR-8 ovarian; 786-0 renal; UO-31 renal; OVCAR-4 ovarian; EKVX NSCLC; SK-MEL-28 melanoma; KM12 colon.
What all share (assay): growth of human tumour cells (NCI), 48 h

`Cc1ccc(NC(c2ccccc2)c2ccc3cccnc3c2O)cc1` (configuration not stated): the TGI with CCRF-CEM leukemia stood at 4.27 µM; with LOX IMVI melanoma it was 16.4 µM; in the test on SF-295 CNS, 16.1 µM; with OVCAR-8 ovarian, 11.1 µM; in the test with 786-0 renal it was 15.1 µM; in the test with UO-31 renal, 16 µM. Moreover, the TGI in the test with OVCAR-4 ovarian stood at 16.4 µM; with EKVX NSCLC, 15 µM; with SK-MEL-28 melanoma, 33.3 µM; with KM12 colon, 19.1 µM.
On to `C/C(=N\N=C(N)N)C(CN(CC(C)C)CC(C)C)C(=O)Nc1ccc(C)cc1C` (configuration not stated), for which the TGI in the test on CCRF-CEM leukemia, in the test with LOX IMVI melanoma, in the test with SF-295 CNS, in the test on OVCAR-8 ovarian, with 786-0 renal and in the test with UO-31 renal was above 100 µM throughout. Besides, the TGI with OVCAR-4 ovarian, in the test on EKVX NSCLC, with SK-MEL-28 melanoma and with KM12 colon was above 100 µM throughout.
For `CC1=C(C)C(=O)c2c(c(C(=O)c3ccccc3)c3nc4ccccc4n3c2C)C1=O`, the GI50 in the test with CCRF-CEM leukemia is above 100 µM; with LOX IMVI melanoma it was 69.9 µM; in the test on SF-295 CNS, 38.8 µM; in the test on OVCAR-8 ovarian it was 39.7 µM; in the test with 786-0 renal it was 26.8 µM; in the test with UO-31 renal, above 100 µM. Further, the GI50 in the test with OVCAR-4 ovarian was above 100 µM; in the test on EKVX NSCLC it was 68.2 µM; with SK-MEL-28 melanoma it was above 100 µM; in the test on KM12 colon, above 100 µM. The TGI in the test on CCRF-CEM leukemia was above 100 µM; with LOX IMVI melanoma, above 100 µM; in the test with SF-295 CNS it was above 100 µM; in the test on OVCAR-8 ovarian, above 100 µM; with 786-0 renal it was 95.2 µM; in the test with UO-31 renal, above 100 µM. Further, the TGI with OVCAR-4 ovarian, in the test with EKVX NSCLC, in the test with SK-MEL-28 melanoma and with KM12 colon was above 100 µM throughout.
For `Cc1[nH]c(=O)[nH]c(=O)c1N(CCF)CCCl`, the GI50 in the test on CCRF-CEM leukemia is 96 µM and 48.4 µM; in the test with LOX IMVI melanoma, 236 µM and 290 µM and 139 µM; with SF-295 CNS it was > 25 µM and 402 µM; with OVCAR-8 ovarian it was 210 µM and 388 µM and 217 µM; with UO-31 renal it was 723 µM and 245 µM; in the test on OVCAR-4 ovarian, 230 µM. In addition, the GI50 in the test on EKVX NSCLC is 165 µM and 406 µM and 557 µM; in the test on SK-MEL-28 melanoma, 256 µM and 494 µM; in the test on KM12 colon, 280 µM and 508 µM. Also, the TGI was 796 µM and 626 µM and 791 µM in the test with CCRF-CEM leukemia; 726 µM and 671 µM and 787 µM in the test on LOX IMVI melanoma; 600 µM and > 25 µM and 1140 µM with SF-295 CNS; 632 µM and 1020 µM and 1140 µM in the test on OVCAR-8 ovarian; 1470 µM with 786-0 renal; 1940 µM and 1110 µM in the test on UO-31 renal. The TGI was 461 µM and 755 µM in the test with OVCAR-4 ovarian; 443 µM and 762 µM and 1200 µM with EKVX NSCLC; 589 µM and 1140 µM and 711 µM in the test on SK-MEL-28 melanoma; 824 µM and 1330 µM and 719 µM in the test on KM12 colon.
For the compound `C=C1C(=O)O[C@@H]2C[C@@H]1CC[C@]1(C)O[C@H]1CC[C@@]1(C)O[C@@H]1CC[C@@]2(C)O`, the GI50 in the test with CCRF-CEM leukemia is 17.5 µM; in the test with LOX IMVI melanoma, 28.7 µM; with SF-295 CNS it was 26.7 µM; in the test on OVCAR-8 ovarian, 30.7 µM; with 786-0 renal, 27.7 µM; with UO-31 renal, 13.7 µM. Besides, the GI50 in the test on OVCAR-4 ovarian was 13.7 µM; in the test on EKVX NSCLC, 59.8 µM; with SK-MEL-28 melanoma, 17.5 µM; with KM12 colon, above 100 µM. The TGI is 49.4 µM in the test on CCRF-CEM leukemia; 80.8 µM in the test with LOX IMVI melanoma; 75.7 µM in the test on SF-295 CNS; above 100 µM in the test with OVCAR-8 ovarian; 89.9 µM in the test on 786-0 renal; 45.1 µM in the test with UO-31 renal. Further, the TGI with OVCAR-4 ovarian is 33.1 µM; in the test on EKVX NSCLC it was above 100 µM; in the test on SK-MEL-28 melanoma, 43.1 µM; with KM12 colon, above 100 µM.
With `C=CC1(C)CCC(C(C)C(=O)C(C=C(C)C)OC(C)=O)C12C(=O)Oc1ccccc1C2=O` (configuration not stated), the TGI with CCRF-CEM leukemia, in the test on LOX IMVI melanoma, in the test on SF-295 CNS, in the test on OVCAR-8 ovarian, in the test on 786-0 renal and in the test with UO-31 renal was above 100 µM throughout. Further, the TGI with OVCAR-4 ovarian, with EKVX NSCLC, in the test on SK-MEL-28 melanoma and in the test on KM12 colon was above 100 µM each time.
Take `O=C(O)c1ccc(S(=O)(=O)c2ccccc2)c([N+](=O)[O-])c1`: the TGI with CCRF-CEM leukemia, with LOX IMVI melanoma, in the test on SF-295 CNS, in the test with 786-0 renal, with UO-31 renal and in the test on OVCAR-4 ovarian was above 100 µM each time. The TGI in the test with EKVX NSCLC, in the test on SK-MEL-28 melanoma and in the test with KM12 colon was above 100 µM throughout.
Take `O=C(O)c1ccc(NC(=O)C2C(=O)C(=O)N(c3ccc(C(=O)O)cc3)C2=O)cc1` (configuration not stated): the TGI with CCRF-CEM leukemia, in the test on LOX IMVI melanoma, in the test with SF-295 CNS, with OVCAR-8 ovarian, with 786-0 renal and with UO-31 renal was above 100 µM throughout. Also, the TGI in the test on OVCAR-4 ovarian, with EKVX NSCLC, in the test with SK-MEL-28 melanoma and with KM12 colon was above 100 µM each time.
Turning to `COc1cccc(-c2nn(-c3ccccc3)cc2-c2ccnc(NCCNS(=O)(=O)c3ccc(Cl)cc3)c2)c1`, the GI50 is 3.47 µM in the test on CCRF-CEM leukemia; 3.12 µM in the test on LOX IMVI melanoma; 3.89 µM with SF-295 CNS; 7.54 µM in the test with OVCAR-8 ovarian; 6.61 µM in the test on 786-0 renal; 2.9 µM with UO-31 renal. Further, the GI50 with OVCAR-4 ovarian was 4.15 µM; in the test on EKVX NSCLC, 3.84 µM; in the test with SK-MEL-28 melanoma it was 7.99 µM; in the test with KM12 colon, 3.72 µM. The TGI with CCRF-CEM leukemia is above 100 µM; in the test with LOX IMVI melanoma, above 100 µM; in the test with SF-295 CNS it was 57.5 µM; with OVCAR-8 ovarian it was above 100 µM; with 786-0 renal, above 100 µM; in the test with UO-31 renal, above 100 µM. The TGI in the test with OVCAR-4 ovarian, in the test on EKVX NSCLC, in the test on SK-MEL-28 melanoma and in the test with KM12 colon was above 100 µM each time.
With `O=C1OC(c2ccco2)=N/C1=C\c1ccc(Cl)c(Cl)c1`, the TGI in the test on CCRF-CEM leukemia, in the test on LOX IMVI melanoma, with SF-295 CNS, with OVCAR-8 ovarian, in the test with 786-0 renal and in the test with OVCAR-4 ovarian was above 100 µM each time. Besides, the TGI in the test on EKVX NSCLC, with SK-MEL-28 melanoma and in the test on KM12 colon was above 100 µM in each case.
